From US8466311B2, “Neuroprotective compositions and methods” (Sanford-Burnham Medical Research Institute, priority 2006, dated 2013)

Experiments:
[1] = Translocation of CA into the brain (HPLC of serum and brain); format: in vivo, mouse
Method: Translocation of CA into the brain detected by high-performance liquid chromatography (HPLC). For experiments testing penetration of drug into the CNS, we used adult male C57BL/6 mice (Charles River) weighing 22-26 g. The mice were kept in cages with ad libitum access to food and water under standardized housing conditions (natural light-dark cycle, temperature of 23±3° C., relative humidity of 50±10%). After a seven-day adaptation to laboratory conditions, the animals were randomly assigned to each experimental group (n=10 mice each). Four C57 BL/6 mice, fastened for 18 h, were each orally administered 3 mg of CA in 0.3 ml olive oil. One and three h after the injection, under ether anesthesia, serum and brain were isolated for chemical analysis. CA was extracted from tissue with acetonitrile and ethanol. CA levels were obtained by HPLC (column, μBondasphere C18; temperature, 40 C; HPLC system, Shimadzu [Kyoto, Japan] LC10Avp; detector, UV 230 nm; running solvent 2% acetic acid or acetonitrile, 30% B isocratic at 1 ml/min).
CA accumulation in the brain. For the development of CA as a protective agent against neurodegenerative diseases, penetration into the brain is an essential requirement. To examine this aspect, we administered CA orally to mice (3 mg per 25 g mouse) and measured the level of CA (catechol-form) in serum and brain parenchyma by HPLC.

[2] = test system: immature cortical neurons; test: Oxidative stress (glutamate or rotenone) in immature cortical cultures; format: cell-based, rat; details: CA 3 μM
Excerpt: Primary cortical cultures and assays for two types of glutamate toxicity. Cerebrocortical neurons have been used as an in vitro system in order to investigate the cellular mechanism of neuronal death caused by glutamate. The level of expression of functional NMDA receptors is key for determining whether excitotoxicity or oxidative glutamate toxicity predominates. With increasing days in vitro (DIV), the expression level of these receptors in cortical cultures increases. […] In light of this background information, in the present study, we prepared cerebrocortical cultures from embryonic day 17 (E17) Sprague-Dawley rats and examined them at DIV2 as an experimental system for oxidative glutamate toxicity (Murphy et al., FASEB J. 4:1624-1633, 1990; Lee et al., J. Biol. Chem. 278:37948-37956, 2003). Rotenone, a complex I inhibitor of the mitochondrial electron-transport chain, also induces oxidative stress in immature cortical cultures (Murphy et al., FASEB J. 4:1624-1633, 1990; Lee et al., J. Biol. Chem. 278:37948-37956, 2003).
CA protects cortical neurons via activation of the Keap1/Nrf2 pathway. […] Glutamate (2 mM) and rotenone (300 nM) decreased the number of MAP2 and NeuN-positive cells to 30.8±2.5% and 25.8±1.9% of the control value, respectively. In contrast, CA (3 μM) increased cell survival in the face of these insults to 73.8±3.7% and 80.4±3.4%, respectively.

ETS-binding site = test: Enhancer element luciferase reporter p3xETSluc; format: cell-based; details: NEPP11 2 μM
Method: Because the E1 and E2 regions also contain other enhancer elements, we tested the effects of NEPP11 (2 μM) on the expression of luciferase activity derived from these elements, including the cAMP-responsive element (CRE; p3xCREluc), AP-1 binding site (p3xAP1luc), NF-κB binding site (p3xNF-κBluc), NFAT-binding site (p3xNFATluc), ETS-binding site (p3xETSluc), and MEF2-binding site (p3xMEF2luc).

Row | Structure (SMILES) | brain permeability ([1]; mouse, in vivo) | time to reach significant levels in the brain ([1]; oral, 3 mg per 25 g mouse) | cell survival (MAP2 and NeuN-positive cells), % of the control value ([2]; glutamate 2 mM, glutamate alone 30.8±2.5%) | cell survival (MAP2 and NeuN-positive cells), % of the control value ([2]; rotenone 300 nM, rotenone alone 25.8±1.9%) | activity of p3xETSluc (ETS-binding site)
1 | CC(C)c1cc2c(c(O)c1O)[C@@]1(C(=O)O)CCCC(C)(C)[C@@H]1CC2 [CA, carnosic acid] | brain permeable | ≤ 1 h | 73.8±3.7% | 80.4±3.4% | –
2 | COC(=O)CCCCC/C=C1/C(=O)C=C[C@H]1CCCCCCc1ccc(C)cc1 [NEPP11] | – | – | – | – | slightly depressed
